Data: patent US11261175B2 (priority 2017, dated 2022)

Assays:
Assay type in all cases: cell-based
[1] = system: HCV genotype 1b replicon with NS5A Y93H mutation; test: Transiently transfected assay of genotype 1b resistance mutant RNA Y93H; details: Hepatitis C virus, Huh-7.5.1, 72 h, read-out: HCV Mutation Y93H
Text: (§1) <Experimental Example 3> Transiently Transfected Assay of Genotype 1b Resistance Mutant RNAs
(§2) Replicon genomes substituted with Y93H, L31V and L31V+Y93H (double mutant), the resistance mutants to Daclatasvir with mutations at the NS5A protein domain 1.
(§3) These HCV resistance mutant genomes were linearized with scal restriction enzyme, and then the mutated HCV RNA was synthesized through in vitro transcription. Huh 7.5.1 cells were individually electroporated with HCV RNA with resistant mutations and plated in a 12 well plate. After 4 hours, Huh7.5.1 cells were seeded in DMEM containing the compounds of examples serially diluted for 3 days. Three days later, the cells were harvested and the intracellular luciferase activity was measured. The luciferase activity was normalized with those obtained from the negative control cells (mock-treated cells).

[2] = system: HCV replicon NK5.1-Gluc (genotype 1b); test: Anti-HCV activity using HCV replicon NK5.1-Gluc (genotype 1b) in Huh 7.5.1 cells, luciferase readout; details: Hepatitis C virus, 72 h; Huh 7.5.1 cells with NK5.1-Gluc replicon, 3 days, Gaussia luciferase; read-out: HCV wt. GT-1b
[3] = system: HCV genotype 1b replicon with NS5A L31V+Y93H (double mutant); test: Transiently transfected assay of genotype 1b resistance mutant RNA L31V+Y93H (double mutant); details: Hepatitis C virus, Huh-7.5.1, 72 h, read-out: HCV Mutation L31V + Y93H
Text: as §1, §2, §3

[4] = system: HCV genotype 1b replicon with NS5A L31V mutation; test: Transiently transfected assay of genotype 1b resistance mutant RNA L31V; details: Hepatitis C virus, Huh-7.5.1, 72 h, read-out: HCV Mutation L31V
Text: as §1, §2, §3

[5] = system: JFH5a-Rluc-ad34 virus (HCV GT-2a); test: Anti-HCV activity using HCVcc (JFH5a-Rluc-ad34 virus) in Huh 7.5.1 cells, Renilla luciferase readout; details: Hepatitis C virus, GT2A, Huh-7.5.1, 72 h, read-out: HCV wt. GT-2a
Experimental: <Experimental Example 1> Measurement of Anti-HCV Activity of Compounds of Examples Using HCVcc
Step 1: Cell Line and Cell Culture
Huh 7.5.1 cells were grown in Dulbecco's Modified Eagle's medium (DMEM; Gibco) supplemented with antibiotics (100 U/mL penicillin, 10 μg/mL streptomycin) and 10% heat-inactivated fetal bovine serum (ΔFBS; PEAK) in a CO2 incubator at 37° C. with […].
Huh7.5.1 cells were transfected with in vitro transcription RNA of JFH5a-Rluc-ad34, a derivative of JFH1 with adaptive mutations in E2 and p7 regions, by electroporation. JFH5a-Rluc-ad34 virus contains Renilla luciferase (Rluc), which is convenient for virus proliferation assay. The cell culture medium containing HCV was collected 3-5 days after the electroporation and then filtered through a […] pore size filter.
Step 3: Antiviral Activity Test Using Infectious HCV Particles
Huh 7.5.1 cells were inoculated with JFH5a-Rluc-ad34 virus and incubated for 4 hours. Four hours after the virus inoculation, the Huh7.5.1 cells infected with HCV were cultured in the medium containing the compound of examples serially diluted. Three days later, the cells were harvested and the intracellular luciferase activity was measured using Renilla luciferase assay system (Promega). Finally, the luciferase activity was normalized with those obtained from the negative control cells (mock-treated cells).

[6] = system: HCV replicon S52-Feo (genotype 3a); test: Anti-HCV activity using HCV replicon S52-Feo (genotype 3a) in Huh 7.5.1 cells, luciferase readout; details: Hepatitis C virus, 72 h; Huh 7.5.1 cells with S52-Feo replicon, 3 days, firefly luciferase; read-out: HCV wt. GT-3a

## CCC1(CC)c2cc(NC(=O)[C@@H]3CCCN3C(=O)[C@H](NC(=O)OC)c3ccccc3)ccc2-c2ccc(-c3cnc([C@@H]4CCCN4C(=O)[C@@H](NC(=O)OC)C(C)C)[nH]3)cc21 [Example 8, methyl ((S)-1-((S)-2-(5-(9,9-diethyl-7-((S)-1-((R)-2-((methoxycarbonyl)amino)-2-phenylacetyl)pyrrolidine-2-carboxyamido)-9H-fluorene-2-yl)-1H-imidazole-2-yl)pyrrolidine-1-yl)-3-methyl-1-oxobutane-2-yl)carbamate]
[1]
  EC50: 0.01 to 0.1 nM
[2]
  EC50: 0.001 to 0.01 nM
[3]
  EC50: 1 to 100 nM
[4]
  EC50: 0.01 to 0.1 nM
[5]
  EC50: 0.001 to 0.01 nM
[6]
  EC50: 0.01 to 0.1 nM

## CCCCC1(CCCC)c2cc(NC(=O)[C@@H]3C[C@@H](OC(=O)C(C)C)CN3C(=O)[C@H](NC(=O)OC)c3ccccc3)ccc2-c2ccc(NC(=O)[C@@H]3C[C@@H](OC(=O)C(C)C)CN3C(=O)[C@H](NC(=O)OC)c3ccccc3)cc21 [Example 32, (3R,3′R,5S,5′S,52R)-5,5′-(9,9-dibutyl-9H-fluorene-2,7-diyl)bis(azanediyl)bis(oxomethylene)bis(1-((R)-2-(methoxycarbonylamino)-2-phenylacetyl)pyrrolidine-5,3-diyl) bis(2-methylpropanoate)]
[1]
  EC50: 0.01 to 0.1 nM
[2]
  EC50: 0.001 to 0.01 nM
[3]
  EC50: 0.01 to 0.1 nM
[4]
  EC50: 0.01 to 0.1 nM
[5]
  EC50: 0.1 to 1 nM
[6]
  EC50: 0.01 to 0.1 nM

## CCCCC1(CCCC)c2cc(NC(=O)[C@@H]3C[C@@H](OC)CN3C(=O)[C@H](NC(=O)OC)c3ccccc3)ccc2-c2ccc(NC(=O)[C@@H]3C[C@@H](OC)CN3C(=O)[C@H](NC(=O)OC)c3ccccc3)cc21 [Example 39, dimethyl (1R,1′R)-2,2′-((3R,3′R,5S,5′S)-5,5′-(9,9-dibutyl-9H-fluorene-2,7-diyl)bis(azanediyl)bis(oxomethylene)bis(3-methoxypyrrolidine-5,1-diyl))bis(2-oxo-1-phenylethane-2,1-diyl)dicarbamate]
[1]
  EC50: 0.01 to 0.1 nM
[2]
  EC50: 0.01 to 0.1 nM
[3]
  EC50: 1 to 100 nM
[4]
  EC50: 0.001 to 0.01 nM
[5]
  EC50: 1 to 100 nM
[6]
  EC50: 0.1 to 1 nM

## CCCCCC1(CCCCC)c2cc(NC(=O)[C@@H]3CCCN3C(=O)[C@H](NC(=O)OC)c3ccccc3)ccc2-c2ccc(NC(=O)[C@@H]3CC(=O)CN3C(=O)[C@H](NC(=O)OC)c3ccccc3)cc21 [Example 19, methyl ((R)-2-((S)-2-((7-((S)-1-((R)-2-((methoxycarbonyl)amino)-2-phenylacetyl)pyrrolidine-2-carboxyamido)-9,9-dipentyl-9H-fluorene-2-yl)carbamoyl)-4-oxopyrrolidine-1-yl)-2-oxo-1-phenylethyl)carbamate]
[1]
  EC50: 0.1 to 1 nM
[2]
  EC50: 0.01 to 0.1 nM
[3]
  EC50: 1 to 100 nM
[4]
  EC50: 0.01 to 0.1 nM
[5]
  EC50: 1 to 100 nM
[6]
  EC50: 1 to 100 nM

## CCCCC1(CCCC)c2cc(NC(=O)[C@@H]3C[C@@H](OCCOC)CN3C(=O)[C@H](NC(=O)OC)c3ccccc3)ccc2-c2ccc(NC(=O)[C@@H]3C[C@@H](OCCOC)CN3C(=O)[C@H](NC(=O)OC)c3ccccc3)cc21 [Example 34, dimethyl (1R,1′R)-2,2′-((3R,3′R,5S,5′S)-5,5′-(9,9-dibutyl-9H-fluorene-2,7-diyl)bis(azanediyl)bis(oxomethylene)bis(3-(2-methoxyethoxy)pyrrolidine-5,1-diyl))bis(2-oxo-1-phenylethane-2,1-diyl)dicarbamate]
[1]
  EC50: 0.01 to 0.1 nM
[2]
  EC50: 0.1 to 1 nM
[3]
  EC50: 1 to 100 nM
[4]
  EC50: 0.01 to 0.1 nM
[5]
  EC50: 1 to 100 nM
[6]
  EC50: 1 to 100 nM

## CCCCCC1(CCCCC)c2cc(NC(=O)[C@@H]3CC4(CN3C(=O)[C@H](NC(=O)OC)c3ccccc3)OCCO4)ccc2-c2ccc(NC(=O)[C@@H]3CC4(CN3C(=O)[C@H](NC(=O)OC)c3ccccc3)OCCO4)cc21 [Example 13, dimethyl ((1R,1′R)-((8S,8′S)-(((9,9-dipentyl-9H-fluorene-2,7-diyl)bis(azanediyl))bis(carbonyl))bis(1,4-dioxa-7-azaspiro[4.4]nonane-8,7-diyl))bis(2-oxo-1-phenylethane-2,1-diyl))dicarbamate]
[1]
  EC50: 0.001 to 0.01 nM
[2]
  EC50: 0.001 to 0.01 nM
[3]
  EC50: 0.01 to 0.1 nM
[4]
  EC50: 0.001 to 0.01 nM
[5]
  EC50: 1 to 100 nM
[6]
  EC50: 0.1 to 1 nM

## CCCCC1(CCCC)c2cc(NC(=O)[C@@H]3CC4(CC4)CN3C(=O)[C@H](NC(=O)OC)c3ccccc3)ccc2-c2ccc(-c3cnc([C@@H]4CCCN4C(=O)[C@@H](NC(=O)OC)C(C)C)[nH]3)cc21 [Example 26, methyl ((S)-1-((S)-2-(5-(9,9-dibutyl-7-((S)-5-((R)-2-((methoxycarbonyl)amino)-2-phenylacetyl)-5-azaspiro[2.4]heptane-6-carboxyamido)-9H-fluorene-2-yl)-1H-imidazole-2-yl)pyrrolidine-1-yl)-3-methyl-1-oxobutane-2-yl)carbamate]
[1]
  EC50: 0.1 to 1 nM
[2]
  EC50: 0.001 to 0.01 nM
[3]
  EC50: > 100 nM
[4]
  EC50: 0.01 to 0.1 nM
[5]
  EC50: 0.01 to 0.1 nM
[6]
  EC50: 0.01 to 0.1 nM

## CCCC1(CCC)c2cc(NC(=O)[C@@H]3CCCN3C(=O)[C@H](NC(=O)OC)c3ccccc3)ccc2-c2ccc(NC(=O)[C@@H]3CCCN3C(=O)[C@H](NC(=O)OC)c3ccccc3)cc21 [Example 1, dimethyl ((1R,1′R)-((2S,2′S)-(((9,9-dipropyl-9H-fluorene-2,7-diyl)bis(azanediyl))bis(carbonyl))bis(pyrrolidine-2,1-diyl))bis(2-oxo-1-phenylethane-2,1-diyl))dicarbamate]
[1]
  EC50: 1 to 100 nM
[2]
  EC50: 0.01 to 0.1 nM
[3]
  EC50: > 100 nM
[4]
  EC50: 0.1 to 1 nM
[5]
  EC50: 1 to 100 nM
[6]
  EC50: 0.1 to 1 nM

## CCCCC1(CCCC)c2cc(NC(=O)[C@@H]3CC(=O)CN3C(=O)[C@H](NC(=O)OC)c3ccccc3)ccc2-c2ccc(NC(=O)[C@@H]3CC4(CN3C(=O)[C@H](NC(=O)OC)c3ccccc3)OCCO4)cc21 [Example 7, methyl ((R)-2-((S)-8-((9,9-dibutyl-7-((S)-1-((R)-2-((methoxycarbonyl)amino)-2-phenylacetyl)-4-oxopyrrolidine-2-carboxyamido)-9H-fluorene-2-yl)carbamoyl)-1,4-dioxa-7-azaspiro[4.4]nonane-7-yl)-2-oxo-1-phenylethyl)carbamate]
[1]
  EC50: 0.01 to 0.1 nM
[2]
  EC50: 0.01 to 0.1 nM
[3]
  EC50: 0.1 to 1 nM
[4]
  EC50: 0.001 to 0.01 nM
[5]
  EC50: 1 to 100 nM
[6]
  EC50: 0.01 to 0.1 nM

## CCCCC1(CCCC)c2cc(NC(=O)[C@@H]3C[C@H](COC)CN3C(=O)[C@H](NC(=O)OC)c3ccccc3)ccc2-c2ccc(NC(=O)[C@@H]3C[C@H](COC)CN3C(=O)[C@H](NC(=O)OC)c3ccccc3)cc21 [Example 36, dimethyl (1R,1′R)-2,2′-((3S,3′S,5S,5′S)-5,5′-(9,9-dibutyl-9H-fluorene-2,7-diyl)bis(azanediyl)bis(oxomethylene)bis(3-(methoxymethyl)pyrrolidine-5,1-diyl))bis(2-oxo-1-phenylethane-2,1-diyl)dicarbamate]
[1]
  EC50: 0.001 to 0.01 nM
[2]
  EC50: 0.001 to 0.01 nM
[3]
  EC50: 0.1 to 1 nM
[4]
  EC50: 0.001 to 0.01 nM
[5]
  EC50: 0.1 to 1 nM
[6]
  EC50: 0.01 to 0.1 nM

## CCCCC1(CCCC)c2cc(NC(=O)[C@@H]3C[C@@H](OC(=O)CN4CCOCC4)CN3C(=O)[C@H](NC(=O)OC)c3ccccc3)ccc2-c2ccc(NC(=O)[C@@H]3C[C@@H](OC(=O)CN4CCOCC4)CN3C(=O)[C@H](NC(=O)OC)c3ccccc3)cc21 [Example 33, (3R,3′R,5S,5S,52R)-5,5′-(9,9-dibutyl-9H-fluorene-2,7-diyl)bis(azanediyl)bis(oxomethylene)bis(1-((R)-2-(methoxycarbonylamino)-2-phenylacetyl)pyrrolidine-5,3-diyl) bis(2-morpholinoacetate)]
[1]
  EC50: 0.01 to 0.1 nM
[2]
  EC50: 0.01 to 0.1 nM
[3]
  EC50: 0.1 to 1 nM
[4]
  EC50: 0.01 to 0.1 nM
[5]
  EC50: 0.1 to 1 nM
[6]
  EC50: 0.1 to 1 nM
